Read-outs that look alike come from different tables or passages of the source.
Tested on: Botrytis cinerea
Assay: Efficacy against Botrytis cinerea on apple (fruit cv. Golden Delicious)
Type: in vivo
Conditions: 120 h, read-out: % activity observed
Source text: A synergistic effect exists whenever the action of an active ingredient combination is greater than the sum of the actions of the individual components.
The action to be expected E for a given active ingredient combination obeys the so-called COLBY formula and can be calculated as follows (COLBY, S. R. “Calculating synergistic and antagonistic responses of herbicide combination”. Weeds, Vol. 15, pages 20-22; 1967):
ppm=milligrams of active ingredient (=a.i.) per litre of spray mixture
X=% action by active ingredient I using p ppm of active ingredient
Y=% action by active ingredient II using q ppm of active ingredient.
According to Colby, the expected (additive) action of active ingredients I+II using p+q ppm of active ingredient is [formula]
If the action actually observed (O) is greater than the expected action (E), then the action of the combination is superadditive, i.e. there is a synergistic effect.
In an apple fruit cv. Golden Delicious 3 holes were drilled and each filled with 50 μl droplets of the formulated test composition. Two hours after application 50 μl of a spore suspension of B. cinerea (4×10^5 conidia/ml) were pipetted on the application sites. After an incubation period of 5 days at 20° C. in a growth chamber the % infected fruit area was determined. The activity was calculated relative to the disease rate on untreated apple fruits. The fungicide interactions in the mixture were calculated according to Colby.

Compound	inhibition at 0.1 µg/mL [%]	inhibition at 0.5 µg/mL [%]	inhibition at 2.5 µg/mL [%]	inhibition at 5 µg/mL [%]	inhibition at 0.5 µg/mL (Thiabendazole 0.5 mg a.i./l, apple, 5 days at 20° C.) [%]	inhibition at 1 µg/mL (Thiabendazole 1 mg a.i./l, apple, 5 days at 20° C.) [%]	inhibition at 2.5 µg/mL (Thiabendazole 2.5 mg a.i./l, apple, 5 days at 20° C.) [%]	inhibition at 5 µg/mL (Thiabendazole 5 mg a.i./l, apple, 5 days at 20° C.) [%]	inhibition at 25 µg/mL (Thiabendazole 25 mg a.i./l, apple, 5 days at 20° C.) [%]
N#Cc1c[nH]cc1-c1cccc2c1OC(F)(F)O2 [Fludioxonil, 4-(2,2-difluoro-1,3-benzodioxol-7-yl)pyrrole-3-carbonitrile]	2	24	54	67	–	–	–	–	–
c1ccc2[nH]c(-c3cscn3)nc2c1 [Thiabendazole, 2-(thiazol-4-yl)benzimidazol]	–	–	–	–	5	10	10	12	5

— patent publication US6797672B2, “Fungicidal compositions based on fludioxonil” (Syngenta Crop Protection, Inc., priority 2003, dated 2004)
